Like-named read-outs stand apart in the source and are kept apart here.
Key:
Type in all cases: physicochemical
[1] = Polymorph screen by reslurry at 23° C. and 50° C.; conditions: slurrying in a variety of different solvents at 23° C. and 50° C.
Description: Thermogravimetric analysis (TGA) and differential scanning calorimetry (DSC) data of products of various re-slurries are compared in Tables B and C below together with TGA/DSC data from the crystal form of the invention prepared according to Example 1. TGA/DSC data was obtained as described in Example 3. While DSC endotherms and TGA weight losses slightly differ between experiments, the variation is expected for HCl loss and decomposition of the sample. Powder X-ray diffraction data (see below Examples) of samples from each of the slurries were consistent with the diffraction pattern of FIG. 1 and Table 1.

[2] = Reslurry experiments, 12 days at RT, XRD while wet; conditions: ethanol, IPA, ethyl acetate, acetone, THF, acetonitrile, toluene, iso-propyl acetate, water, days 6 and 12
Method: 4-cyano-N-{(2R)-2-[4-(2,3-dihydro-benzo[1,4]dioxin-5-yl)-piperazin-1-yl]-propyl}-N-pyridin-2-yl-benzamide hydrochloride was reslurried in about 1-2 ml of ethanol, IPA, ethyl acetate, acetone, THF, acetonitrile, toluene, iso-propyl acetate, and water. The suspensions were stirred in 5 ml vials for 12 days at RT. The suspension samples were withdrawn at days 6 and 12, filtered, and analyzed via XRD while wet.

[3] = Solubility determination in a variety of solvents
Method: The solubility of the compound of Formula I in a variety of solvents was measured according to routine methods at 23° C. and 50° C.

Q: Which results are given for C[C@H](CN(C(=O)c1ccc(C#N)cc1)c1ccccn1)N1CCN(c2cccc3c2OCCO3)CC1.Cl [Form A, 4-cyano-N-{(2R)-2-[4-(2,3-dihydro-benzo[1,4]dioxin-5-yl)-piperazin-1-yl]-propyl}-N-pyridin-2-yl-benzamide hydrochloride]?
A: Stability of crystal form upon slurrying [1]: remained stable; Form transformation on reslurry (XRD) [2]: No transformation was noticed

Q: For C[C@H](CN(C(=O)c1ccc(C#N)cc1)c1ccccn1)N1CCN(c2cccc3c2OCCO3)CC1.Cl [Formula I, 4-cyano-N-{(2R)-2-[4-(2,3-dihydro-benzo[1,4]dioxin-5-yl)-piperazin-1-yl]-propyl}-N-pyridin-2-yl-benzamide hydrochloride], which solubility ([3]; organic solvent or mixture, solvent 2-Propanol, 23° C., read-out: Solubility at 23° C.) is on record?
A: 2 mg/mL

Q: And the solubility ([3]; organic solvent or mixture, solvent 2-Propanol, 50° C., read-out: Solubility at 50° C.)?
A: 6 mg/mL

Q: What about the solubility ([3]; organic solvent or mixture, solvent Acetone, 23° C., read-out: Solubility at 23° C.) of the same compound?
A: 6 mg/mL

Q: And the solubility ([3]; organic solvent or mixture, solvent Acetone, 50° C., read-out: Solubility at 50° C.)?
A: 9 mg/mL

Q: What about the solubility ([3]; organic solvent or mixture, solvent CH3CN, 23° C., read-out: Solubility at 23° C.) of the same compound?
A: 18 mg/mL

Q: What about the solubility ([3]; organic solvent or mixture, solvent CH3CN, 50° C., read-out: Solubility at 50° C.) of the same compound?
A: 37 mg/mL

Q: And the solubility ([3]; organic solvent or mixture, solvent DMSO, 23° C., read-out: Solubility at 23° C.)?
A: 246 mg/mL

Q: What about the solubility ([3]; organic solvent or mixture, solvent DMSO, 50° C., read-out: Solubility at 50° C.) of the same compound?
A: 337 mg/mL

Q: And the solubility ([3]; organic solvent or mixture, solvent EtOH, 23° C., read-out: Solubility at 23° C.)?
A: 19 mg/mL

Q: And the solubility ([3]; organic solvent or mixture, solvent EtOH, 50° C., read-out: Solubility at 50° C.)?
A: 40 mg/mL

Q: And the solubility ([3]; organic solvent or mixture, solvent Ethyl acetate, 23° C., read-out: Solubility at 23° C.)?
A: 16 mg/mL

Q: What about the solubility ([3]; organic solvent or mixture, solvent Ethyl acetate, 50° C., read-out: Solubility at 50° C.) of the same compound?
A: 24 mg/mL

Q: What about the solubility ([3]; organic solvent or mixture, solvent Heptane, 23° C., read-out: Solubility at 23° C.) of the same compound?
A: 1 mg/mL

Q: And the solubility ([3]; organic solvent or mixture, solvent Heptane, 50° C., read-out: Solubility at 50° C.)?
A: 1 mg/mL

Q: And the solubility ([3]; organic solvent or mixture, solvent MeOH, 23° C., read-out: Solubility at 23° C.)?
A: 378 mg/mL

Q: And the solubility ([3]; organic solvent or mixture, solvent MeOH, 50° C., read-out: Solubility at 50° C.)?
A: 989 mg/mL

Q: What about the solubility ([3]; organic solvent or mixture, solvent THF, 23° C., read-out: Solubility at 23° C.) of the same compound?
A: 4 mg/mL

Q: What about the solubility ([3]; organic solvent or mixture, solvent THF, 50° C., read-out: Solubility at 50° C.) of the same compound?
A: 5 mg/mL

Q: And the solubility ([3]; organic solvent or mixture, solvent Toluene, 23° C., read-out: Solubility at 23° C.)?
A: 8 mg/mL

Q: What about the solubility ([3]; organic solvent or mixture, solvent Toluene, 50° C., read-out: Solubility at 50° C.) of the same compound?
A: 14 mg/mL

Q: And the solubility ([3]; organic solvent or mixture, solvent t-Butylmethyl ether (t-BME), 50° C., read-out: Solubility at 50° C.)?
A: 1 mg/mL

Q: What about the solubility ([3]; solvent Water, 23° C., read-out: Solubility at 23° C.) of the same compound?
A: 49 mg/mL

Q: What about the solubility ([3]; solvent Water, 50° C., read-out: Solubility at 50° C.) of the same compound?
A: > 100 mg/mL

Q: What about the “Solubility in water (qualitative)” value ([3]; water, remark explaining oiling out on cooling) of the same compound?
A: very high solubility

— patent US20070027162A1, “Crystalline and amorphous 4-cyano-N-{(2R)-2-[4-(2,3-dihydro-benzo[1,4]dioxin-5-yl)-piperazin -1-yl]-propyl}-N-pyridin-2-yl-benzamide hydrochloride” (Wyeth, priority 2005, published 2007)
